Publication PMC9101373, “Design of DNA Intercalators Based on 4-Carboranyl-1,8-Naphthalimides: Investigation of Their DNA-Binding Ability and Anticancer Activity” (International Journal of Molecular Sciences, 2022)

Assays:
[1] = test system: HepG2 cells; assay: Cell cycle analysis by flow cytometry (PI staining); type: cell-based, human; conditions: HepG2, 24 h at IC50; for cells in G2M phase: control 11.5%
Description: To reveal the mechanism underlying the inhibitory effect of the obtained compounds on cellular viability, we examined cell cycle regulation. For this purpose, HepG2 cells were exposed to compounds 54–61 (54 (5.5 µM), 55 (3.4 µM), 56 (12 µM), 57 (3.1 µM), 58 (3.9 µM), 59 (5.4 µM), 60 (31 µM), and 61 (4.8 µM)). The chosen concentration of each of these compounds corresponded to their total IC50 value.
After exposure, HepG2 cells were examined by flow cytometry, and their DNA content was measured by PI staining. […] Compounds 54–59 caused arrest in the G1/G0 phase since we observed a higher number of cells in that phase as compared to control (Figure 4 and Figure S297, ESI). […] Compounds 60 and 61 arrested cell cycle in the G2M phase, where the accumulation of cells was observed (>18% vs. 11.5% in control cells) (Figure 4 and Figure S297, ESI). In comparison, mitonafide and pinafide induced cell cycle arrest at the S and G2M phases, respectively. […] In contrast, 1,8-naphthalimide products with carborane modification at position 3 caused cell cycle arrest at the G2M phase, similar to pinafide and compounds 60 and 61 from this study.
HepG2 (5 × 10^5) cells were seeded onto 6-well cell culture plates and incubated for 24 h in a fully supplemented EMEM medium (Corning®) with addition of the analyzed compounds at a concentration corresponding to their total IC50 values. DNA content was determined by flow cytometry with PI (Sigma-Aldrich, Steinheim, Germany) staining. After incubation, the cells were trypsinized and washed twice with PBS (1 mL). In the next step, the cells were fixed with an ice-cold 80% ethanol. After 1 h incubation at 4 °C, the cells were stored at −20 °C for further analysis. After double wash with PBS, the fixed cells were stained with PI (50 μg/mL) with RNAse A (100 μg/mL) for 30 min at 37 °C in the dark. PI fluorescence was measured by FACSCalibur (Becton Dickinson), and data were analyzed by FlowJo software. […]

[2] = test system: HepG2 cells; assay: Cell migration inhibition assay (xCELLigence, CIM plates); type: cell-based, human; conditions: 24 h pre-incubation at one-fourth of IC50
Description: By using the xCELLigence platform, we evaluated migration potential of HepG2 cells after the administration of compounds. We incubated the cells with compounds 54–61 at the concentration corresponding to one-fourth of the IC50 value for 24 h before the analysis, and the cells were then seeded on a CIM plate. Impedance-based cell index (CI) of HepG2 cells was measured every 30 min for 72 h. […] The most significant changes were observed within the first 24 h (Figure 3A). Thus, to obtain more insight into the altered migration profile caused by the analyzed compounds, we additionally calculated the slope representing the rate of change of the cell index within the first 24 h.
Transwell cell migration experiments were performed using xCELLigence RTCA Analyzer (Roche) in Cell Invasion and Migration (CIM) plates (ACEA Biosciences, San Diego, CA, USA). Each well consisted of an upper and a lower chamber separated by a microporous polyethylene terephthalate (PET) membrane containing randomly distributed 8 μm-pores. Prior to the migration assay, HepG2 cells (15 × 10^3) were seeded onto 48-well plates containing the growth medium (EMEM) and incubated until 70–80% confluency and incubated at 37 °C in a humidified atmosphere containing 5% CO2. Subsequently, the cells were treated for 24 h with the tested compounds at the final concentration corresponding to the one-fourth of IC50 value. Next, 160 μL of complete growth medium (supplemented with 10% FBS) was added to the lower chamber and 50 μL of serum-free growth medium to the upper chambers of CIM plate. The plates were incubated at 37 °C and 5% CO2 saturation for 1 h prior to insertion into the xCELLigence platform. To initiate a transwell migration experiment, cells were detached, resuspended in the serum-free growth medium, and seeded in the upper chamber at a density of 1 × 10^4 cells in 100 μL per well, previously treated with the compounds. The impedance of the microelectrode array was monitored and converted to the cell index (CI). Normalization values were recorded using the RTCA Software 1.2.1. […]
Figure 3 Real-time migration potential of HepG2 cells after 24 h administration of compounds 54–61. The migration potential of the cells was monitored using the xCELLigence system. HepG2 cells were incubated with the analyzed compounds for 24 h before the analysis at the concentration corresponding to one-fourth of the IC50 value. The impedance (cell index values) was measured every 30 min for the next 72 h. To eliminate the influence of the solvent, DMSO was added to the cells in a volume that corresponded to the highest compound concentration (A). The slope parameter represents the rate of changes in CI values of HepG2 cells within the first 24 h (B). […]

Row | Substance | G0/G1 cell fraction ([1]; control 60.1%) [%] | effect on migration potential of HepG2 cells (cell index, slope in first 24 h) [2] | cells in G2M phase [1] [%]
1 | N-[2-(Dimethylamino)ethyl]-4-[(6-(2-(1,2-dicarba-closo-dodecaborane-1-yl)-ethylamino)hexyl)amino]-1,8-naphthalimide [Compound 58] | 70.4 | – | –
2 | N-[2-(Pyrrolidin-1-yl)ethyl]-4-[(2-(2-(1,2-dicarba-closo-dodecaborane-1-yl)-ethylamino)ethyl)amino]-1,8-naphthalimide [Compound 56] | – | influenced the migratory activity most | –
3 | N-[2-(Pyrrolidin-1-yl)ethyl]-4-[(2-(2-(1,7-dicarba-closo-dodecaborane-1-yl)-ethylamino)ethyl)amino]-1,8-naphthalimide [Compound 57] | – | influenced the migratory activity most | –
4 | N-[2-N-Pyrrolidinyl)ethyl]-4-[(6-(2-(1,2-dicarba-closo-dodecaborane-1-yl)-ethylamino)hexyl)amino]-1,8-naphthalimide [Compound 60] | – | influenced the migratory activity most | > 18
5 | N-[2-N-Pyrrolidinyl)ethyl]-4-[(6-(2-(1,7-dicarba-closo-dodecaborane-1-yl)-ethylamino)hexyl)amino]-1,8-naphthalimide [Compound 61] | – | highest impairment | > 18
